Details: Liquid; for mass density: Vibrating tube method; for viscosity: Concentric cylinders viscometry

CCOS(=O)(=O)[O-].CCn1cc[n+](C)c1 [1-ethyl-3-methylimidazolium ethyl sulfate]
Details	mass density [kg/m3]	viscosity [mPa·s]
333.15 K, 101.33 kPa	1214.27	–
333.15 K, 4956 kPa	1216.39	–
333.15 K, 29992 kPa	1227.03	–
333.15 K, 69997 kPa	1242.77	–
333.15 K, 109862 kPa	1256.89	–
333.15 K, 121234 kPa	1260.63	–
333.16 K, 49995 kPa	1235.1	–
333.16 K, 60002 kPa	1238.99	–
333.16 K, 129872 kPa	1263.39	–
333.17 K, 1680 kPa	1214.95	–
333.17 K, 40144 kPa	1231.18	–
333.18 K, 139672 kPa	1266.43	–
343.15 K, 101.33 kPa	–	18.7
353.13 K, 19599 kPa	1209.45	–
353.13 K, 29993 kPa	1214.03	–
353.13 K, 39918 kPa	1218.29	–
353.13 K, 79974 kPa	1234.36	–
353.13 K, 119073 kPa	1248.32	–
353.14 K, 89917 kPa	1238.07	–
353.14 K, 99462 kPa	1241.53	–
353.14 K, 109824 kPa	1245.17	–
353.14 K, 129849 kPa	1251.87	–
353.14 K, 139892 kPa	1255.06	–
353.15 K, 101.33 kPa	1200.53	14.6
353.15 K, 49925 kPa	1222.47	–
353.15 K, 69993 kPa	1230.52	–
353.18 K, 59605 kPa	1226.41	–
353.19 K, 1193 kPa	1201.04	–
353.19 K, 4987 kPa	1202.81	–
353.19 K, 10093 kPa	1205.15	–
363.15 K, 101.33 kPa	1194.25	11.9
373.11 K, 118179 kPa	1236.88	–
373.12 K, 19814 kPa	1197.22	–
373.13 K, 10765 kPa	1192.98	–
373.13 K, 29997 kPa	1201.88	–
373.13 K, 39971 kPa	1206.31	–
373.13 K, 98959 kPa	1230.06	–
373.13 K, 109856 kPa	1233.98	–
373.13 K, 129856 kPa	1240.8	–
373.14 K, 49993 kPa	1210.64	–
373.15 K, 101.33 kPa	–	9.7
373.15 K, 59698 kPa	1214.72	–
373.15 K, 90001 kPa	1226.72	–
373.15 K, 140000 kPa	1244.08	–
373.16 K, 69987 kPa	1218.92	–
373.17 K, 1377 kPa	1188.48	–
373.17 K, 5226 kPa	1190.34	–
373.17 K, 79962 kPa	1222.87	–
393.12 K, 910 kPa	1175.14	–
393.12 K, 59389 kPa	1202.77	–
393.12 K, 69993 kPa	1207.25	–
393.12 K, 79111 kPa	1210.99	–
393.13 K, 5153 kPa	1177.31	–
393.13 K, 89994 kPa	1215.29	–
393.14 K, 99376 kPa	1218.86	–
393.15 K, 49959 kPa	1198.64	–
393.15 K, 109877 kPa	1222.71	–
393.15 K, 119972 kPa	1226.26	–
393.15 K, 129874 kPa	1229.6	–
393.15 K, 139106 kPa	1232.59	–
393.16 K, 10368 kPa	1179.94	–
393.16 K, 20408 kPa	1184.89	–
393.16 K, 29995 kPa	1189.49	–
393.16 K, 39725 kPa	1194.02	–
413.12 K, 9823 kPa	1167.05	–
413.12 K, 98120 kPa	1207.66	–
413.13 K, 19924 kPa	1172.37	–
413.13 K, 109866 kPa	1212.06	–
413.13 K, 120361 kPa	1215.8	–
413.15 K, 5311 kPa	1164.62	–
413.15 K, 29993 kPa	1177.5	–
413.15 K, 89994 kPa	1204.48	–
413.15 K, 129864 kPa	1219.02	–
413.17 K, 1563 kPa	1162.57	–
413.17 K, 39896 kPa	1182.37	–
413.17 K, 49998 kPa	1187.17	–
413.17 K, 59469 kPa	1191.52	–
413.17 K, 69996 kPa	1196.16	–
413.17 K, 139292 kPa	1222.06	–
413.18 K, 79893 kPa	1200.36	–
